Assay results taken from patent US8143374B2, “Polypeptide derivatives of parathyroid hormone (PTH)” (The General Hospital Corporation, priority 2006, dated 2012).

Target: T1, endogenous PTHR in ROS 17/2.8 cells (Rattus norvegicus, UniProt P25961)
T1 construct: ROS 17/2.8 cells are rat osteosarcoma cells and express the endogenous PTHR; endogenous in cells; host or cells: ROS 17/2.8 rat osteosarcoma cells
T1 sequence (P25961 27-591): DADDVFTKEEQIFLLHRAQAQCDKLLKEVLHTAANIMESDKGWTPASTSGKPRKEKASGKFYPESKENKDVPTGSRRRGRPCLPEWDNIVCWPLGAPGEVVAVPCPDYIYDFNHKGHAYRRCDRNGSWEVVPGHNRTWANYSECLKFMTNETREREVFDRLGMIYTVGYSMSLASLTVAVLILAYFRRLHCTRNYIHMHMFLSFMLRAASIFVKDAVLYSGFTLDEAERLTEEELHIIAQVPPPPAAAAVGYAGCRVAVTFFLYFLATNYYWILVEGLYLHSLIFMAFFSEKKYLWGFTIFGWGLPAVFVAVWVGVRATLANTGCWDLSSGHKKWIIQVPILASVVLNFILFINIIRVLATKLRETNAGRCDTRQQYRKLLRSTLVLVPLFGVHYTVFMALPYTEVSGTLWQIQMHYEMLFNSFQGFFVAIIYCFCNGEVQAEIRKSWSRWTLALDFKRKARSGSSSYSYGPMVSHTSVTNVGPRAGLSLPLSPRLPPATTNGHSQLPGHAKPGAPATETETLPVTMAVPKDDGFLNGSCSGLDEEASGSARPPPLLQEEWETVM
Test: Stimulation of intracellular cAMP in ROS 17/2.8 cells
Assay type: cell-based
Protocol: Cell Culture—Cells were cultured at 37° C. in a humidified atmosphere containing 5% CO2 in Dulbecco's modified Eagle's medium (DMEM), supplemented with 10% fetal bovine serum (HyClone, Logan Utah), 100 units/ml penicillin G, and 100 ug/ml streptomycin penicillin G/streptomycin (Invitrogen Corp. Carlsbad, Calif.). For binding and cAMP studies performed with the intact PTHR, the HKRK-B7 and ROS 17/2.8 cell lines were used. HKRK-B7 cells are derived from the porcine kidney cell line LLC-PK1 and express, via stable DNA transfection, the wild-type human PTHR at an approximate surface density of 950,000 PTH-binding sites per cell. ROS 17/2.8 cells are rat osteosarcoma cells and express the endogenous PTHR at an approximate surface density of 80,000 PTH-binding sites per cell. The cells were plated and assayed in 24-well plates.
Stimulation of intracellular cAMP and inositol phosphate—The capacities of the ligands to stimulate adenylyl cyclase activity were assessed in intact ROS 17/2.8 cells, as described (Shimizu, M., (2001) Endocrinology 142:3068-3074). […] The cAMP in the thawed lysate was then quantified by radioimmuno assay. The stimulation of production of inositol phosphates (IP1+IP2+IP3) was assessed in COS-7 cells transfected with the intact human PTHR, as described previously (Shimizu, M., (2001) Endocrinology 142:3068-3074). […]

EC50: 59 ± 31 nM
Sequence: SVSEIQLMHNLGKHLNSMEEVEWLRKKLQDV [Arg^20→Glu]
